In patent publication US20230399312A1, “SUBSTITUTED PYRIMIDINES AND METHODS OF USE” (THERAVANCE BIOPHARMA R&D IP, LLC, priority 2020, published 2023):
pKi: −log10 of the molar value.

Legend:
[1] = molecular target: T1, recombinant human ALK5 (TGF-βR1) protein (Homo sapiens, UniProt P36897); experiment: Biochemical ALK5 (TGF-βR1) assay to measure pKi (LANCE Ultra ULight kinase assay); conditions: apparent pKi, converted from pIC50 by Cheng-Prusoff
T1 construct: purchased Life Technologies PR9075A
T1 sequence (P36897 34-503): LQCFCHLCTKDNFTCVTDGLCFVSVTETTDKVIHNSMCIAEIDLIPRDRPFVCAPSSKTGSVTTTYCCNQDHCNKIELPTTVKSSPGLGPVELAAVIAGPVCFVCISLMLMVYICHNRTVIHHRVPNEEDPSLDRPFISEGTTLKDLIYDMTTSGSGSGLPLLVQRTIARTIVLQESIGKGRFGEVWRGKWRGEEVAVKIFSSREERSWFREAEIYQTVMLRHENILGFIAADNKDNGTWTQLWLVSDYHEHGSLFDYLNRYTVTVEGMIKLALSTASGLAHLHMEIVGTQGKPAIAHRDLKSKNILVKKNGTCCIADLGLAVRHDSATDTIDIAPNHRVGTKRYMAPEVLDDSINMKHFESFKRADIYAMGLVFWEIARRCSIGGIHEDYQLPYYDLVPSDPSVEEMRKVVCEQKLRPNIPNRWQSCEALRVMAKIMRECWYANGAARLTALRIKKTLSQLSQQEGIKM
Procedure, shortened: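 Enzyme preincubated with compound for 60 min at room temperature, then reacted with ATP (125 μM as 5× stock) for 60 min at 37 °C. Stopped with EDTA plus Eu-anti-phospho-Topoisomerase 2-alpha (Thr1342) antibody and read by TR-FRET at 665 nm. pIC50 from a 4-parameter fit, converted to pKi by Cheng-Prusoff.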

[2] = system: TGF-β-stimulated SMAD3 phosphorylation in BEAS-2B cells; experiment: Cellular ALK5 potency assay, inhibition of TGF-β stimulated pSMAD3 formation in BEAS-2B cells; format: cell-based; conditions: Homo sapiens, pSMAD3, TGF-β 10 ng/mL, read-out: BEAS2B pIC50 (converted)
Procedure, shortened: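 Potency is expressed as pIC50, based on dose-dependent reduction of TGF-β-induced pSMAD3 AlphaLISA signal relative to stimulated cells without compound. BEAS-2B cells received compound 1 h before a 30 min, 10 ng/mL TGF-β challenge.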

Compound	pKi [1]	IC50 [2] [nM]
Cc1cccc(-c2nccc(Nc3ccnc(Nc4ccc(CCO)cc4)n3)n2)n1 [Compound 146, 2-[4-[[4-[[2-(6-methyl-2-pyridyl)pyrimidin-4-yl]amino]pyrimidin-2-yl]amino]phenyl]ethanol]	8.50 to 9.40	25.1 to 158
Cc1cccc(-c2nccc(Nc3ccnc(Nc4ccc(C(=O)OC5CCNCC5)cc4)n3)n2)n1 [Compound 147, 4-piperidyl 4-[[4-[[2-(6-methyl-2-pyridyl)pyrimidin-4-yl]amino]pyrimidin-2-yl]amino]benzoate]	9.50 to 10.40	25.1 to 158
Cc1cccc(-c2nccc(Nc3ccnc(Nc4nc(C(=O)OC5CCNCC5)cs4)n3)n2)n1 [Compound 148, piperidin-4-yl 2-((4-((2-(6-methylpyridin-2-yl)pyrimidin-4-yl)amino)pyrimidin-2-yl)amino)thiazole-4-carboxylate]	8.50 to 9.40	25.1 to 158
Cc1cccc(-c2nccc(Nc3ccnc(Nc4ccc(N5CCN(C(=O)CSC6CCOC6=O)CC5)cc4)n3)n2)n1 (stereo not shown) [Compound 149, 3-[2-[4-[4-[[4-[[2-(6-methyl-2-pyridyl)pyrimidin-4-yl]amino]pyrimidin-2-yl]amino]phenyl]piperazin-1-yl]-2-oxo-ethyl] sulfanyltetrahydrofuran-2-one]	9.50 to 10.40	25.1 to 158
Cc1cccc(-c2nccc(Nc3ccnc(Nc4ccc(NC(=O)C5CCN(C)CC5)cc4)n3)n2)n1 [Compound 150, 1-methyl-N-[4-[[4-[[2-(6-methyl-2-pyridyl)pyrimidin-4-yl]amino]pyrimidin-2-yl]amino]phenyl]piperidine-4-carboxamide]	9.50 to 10.40	25.1 to 158
Cc1cccc(-c2nccc(Nc3ccnc(Nc4ccc(C5=CCC(N)CC5)cc4)n3)n2)n1 (stereo not shown) [Compound 151, N2-[4-(4-aminocyclohexen-1-yl)phenyl]-N4-[2-(6-methyl-2-pyridyl)pyrimidin-4-yl]pyrimidine-2,4-diamine]	9.50 to 10.40	25.1 to 158
Cc1cccc(-c2nccc(Nc3ccnc(Nc4ccc(CN5CC(C(=O)O[C@@H]6CCNC6)C5)cc4)n3)n2)n1 [Compound 152, [(3R)-pyrrolidin-3-yl] 1-[[4-[[4-[[2-(6-methyl-2-pyridyl)pyrimidin-4-yl]amino]pyrimidin-2-yl]amino]phenyl]methyl] azetidine-3-carboxylate]	9.50 to 10.40	25.1 to 158
Cc1cccc(-c2nccc(Nc3ccnc(Nc4ccc(N5CCN(C)CC5)cc4)n3)n2)n1 [Compound 153, N2-[4-(4-methylpiperazin-1-yl)phenyl]-N4-[2-(6-methyl-2-pyridyl)pyrimidin-4-yl]pyrimidine-2,4-diamine]	≥ 10.50	25.1 to 158
Cc1cccc(-c2nccc(Nc3ccnc(Nc4cccc(NC(=O)C5CNC5)c4)n3)n2)n1 [Compound 154, N-[3-[[4-[[2-(6-methyl-2-pyridyl)pyrimidin-4-yl]amino]pyrimidin-2-yl]amino]phenyl]azetidine-3-carboxamide]	9.50 to 10.40	25.1 to 158
Cc1cccc(-c2nccc(Nc3ccnc(Nc4nc(CN5CCC[C@@H](C(=O)OCC6CNC6)C5)cs4)n3)n2)n1 [Compound 155, azetidin-3-ylmethyl (3R)-1-[[2-[[4-[[2-(6-methyl-2-pyridyl)pyrimidin-4-yl]amino]pyrimidin-2-yl]amino]thiazol-4-yl]methyl]piperidine-3-carboxylate]	8.50 to 9.40	200 to 1260
CCOC(=O)Cc1cc(Nc2nccc(Nc3ccnc(-c4cccc(C)n4)n3)n2)ccc1N1CCNCC1 [Compound 156, ethyl 2-[5-[[4-[[2-(6-methyl-2-pyridyl)pyrimidin-4-yl]amino]pyrimidin-2-yl]amino]-2-piperazin-1-yl-phenyl]acetate]	9.50 to 10.40	25.1 to 158
Cc1cccc(-c2nccc(Nc3ccnc(Nc4ccc(NCCN5CCNCC5)cc4)n3)n2)n1 [Compound 157, N4-[2-(6-methyl-2-pyridyl)pyrimidin-4-yl]-N2-[4-(2-piperazin-1-ylethylamino)phenyl]pyrimidine-2,4-diamine]	9.50 to 10.40	200 to 1260
Cc1cccc(-c2nccc(Nc3ccnc(Nc4ccc(NC(=O)C5CCNCC5)c(Cl)c4)n3)n2)n1 [Compound 158, N-[2-chloro-4-[[4-[[2-(6-methyl-2-pyridyl)pyrimidin-4-yl]amino]pyrimidin-2-yl]amino]phenyl]piperidine-4-carboxamide]	9.50 to 10.40	25.1 to 158
Cc1cccc(-c2nccc(Nc3ccnc(Nc4ccc(N5CCNCC5CC(=O)OC5CNC5)cc4)n3)n2)n1 (stereo not shown) [Compound 159, azetidin-3-yl 2-[1-[4-[[4-[[2-(6-methyl-2-pyridyl)pyrimidin-4-yl]amino]pyrimidin-2-yl]amino]phenyl]piperazin-2-yl]acetate]	9.50 to 10.40	200 to 1260
Cc1cccc(-c2nccc(Nc3ccnc(Nc4ccc5c(c4)CCNCC5)n3)n2)n1 [Compound 160, N4-[2-(6-methyl-2-pyridyl)pyrimidin-4-yl]-N2-(2,3,4,5-tetrahydro-1H-3-benzazepin-7-yl)pyrimidine-2,4-diamine]	9.50 to 10.40	25.1 to 158
Cc1cccc(-c2nccc(Nc3ccnc(Nc4ccc(CN5CCC(C(=O)O[C@H]6CCN(C)C6)C5)cc4)n3)n2)n1 (stereo partly drawn) [Compound 161, [(3S)-1-methylpyrrolidin-3-yl] 1-[[4-[[4-[[2-(6-methyl-2-pyridyl)pyrimidin-4-yl]amino]pyrimidin-2-yl]amino]phenyl]methyl] pyrrolidine-3-carboxylate]	9.50 to 10.40	≤ 20
Cc1cccc(-c2nccc(Nc3ccnc(Nc4ccc(NS(=O)(=O)c5ccc(C(N)=O)cc5)cc4)n3)n2)n1 [Compound 162, 4-[[4-[[4-[[2-(6-methyl-2-pyridyl)pyrimidin-4-yl]amino]pyrimidin-2-yl]amino]phenyl]sulfamoyl] benzamide]	8.50 to 9.40	200 to 1260
Cc1cccc(-c2nccc(Nc3ccnc(Nc4ccc(CN5CC6(CNC6)C5)cc4)n3)n2)n1 [Compound 163, N2-[4-(2,6-diazaspiro[3.3]heptan-2-ylmethyl)phenyl]-N4-[2-(6-methyl-2-pyridyl)pyrimidin-4-yl]pyrimidine-2,4-diamine]	9.50 to 10.40	25.1 to 158

Second part, led by results:

pKi [1]	Compound	IC50 [2] [nM]
9.50 to 10.40	Cc1cccc(-c2nccc(Nc3ccnc(Nc4cccc(NC(=O)C5(CO)CNC5)c4)n3)n2)n1 [Compound 164, 3-(hydroxymethyl)-N-[3-[[4-[[2-(6-methyl-2-pyridyl)pyrimidin-4-yl]amino]pyrimidin-2-yl]amino]phenyl]azetidine-3-carboxamide]	25.1 to 158
7.50 to 8.40	Fc1ccc(Cl)cc1-c1nccc(Nc2ccnc(Nc3ccc(CN4CCOCC4)cc3)n2)n1 [Compound 165, N4-[2-(5-chloro-2-fluoro-phenyl)pyrimidin-4-yl]-N2-[4-(morpholinomethyl)phenyl] pyrimidine-2,4-diamine]	25.1 to 158
7.50 to 8.40	Cc1ccc(O)cc1-c1nccc(Nc2ccnc(Nc3ccc(N4CCOCC4)cc3)n2)n1 [Compound 166, 4-methyl-3-[4-[[2-(4-morpholinoanilino)pyrimidin-4-yl]amino]pyrimidin-2-yl]phenol]	25.1 to 158
9.50 to 10.40	Cc1cccc(-c2nccc(Nc3ccnc(Nc4ccc(CN5CC(C(=O)OC6CNC6)C5)cc4)n3)n2)n1 [Compound 167, azetidin-3-yl 1-[[4-[[4-[[2-(6-methyl-2-pyridyl)pyrimidin-4-yl]amino]pyrimidin-2-yl]amino]phenyl]methyl] azetidine-3-carboxylate]	25.1 to 158
9.50 to 10.40	Cc1cccc(-c2nccc(Nc3ccnc(Nc4cccc(NC(=O)NC5CCNC5)c4)n3)n2)n1 (stereo not shown) [Compound 168, 1-[3-[[4-[[2-(6-methyl-2-pyridyl)pyrimidin-4-yl]amino]pyrimidin-2-yl]amino]phenyl]-3-pyrrolidin-3-yl-urea]	25.1 to 158
8.50 to 9.40	COCCn1cc(-c2ccc(Nc3nccc(Nc4ccnc(-c5cccc(C)n5)n4)n3)cc2)cn1 [Compound 169, N2-[4-[1-(2-methoxyethyl)pyrazol-4-yl]phenyl]-N4-[2-(6-methyl-2-pyridyl)pyrimidin-4-yl]pyrimidine-2,4-diamine]	25.1 to 158
8.50 to 9.40	Cc1ccc(Nc2nccc(Nc3ccnc(-c4cccc(C)n4)n3)n2)cc1 [Compound 170, N4-[2-(6-methyl-2-pyridyl)pyrimidin-4-yl]-N2-(p-tolyl)pyrimidine-2,4-diamine]	25.1 to 158
8.50 to 9.40	COC(=O)C1CN(CCNc2ccc(Nc3nccc(Nc4ccnc(-c5cccc(C)n5)n4)n3)cc2)CCN1C(C)C (stereo not shown) [Compound 171, methyl 1-isopropyl-4-[2-[4-[[4-[[2-(6-methyl-2-pyridyl)pyrimidin-4-yl]amino]pyrimidin-2-yl]amino]anilino]ethyl] piperazine-2-carboxylate]	25.1 to 158
